Measurements published in article PMC11790914, “Chemogenomics for steroid hormone receptors (NR3)” (Communications Chemistry, 2025).
Values joined by “and” are separate entries in the source; they are usually repeats but may differ in a detail not shown here. Equal values may be shown once. Read-outs that look alike come from different tables or passages of the source.

Experiments:
CSNK1D = target: T1, CSNK1D (Homo sapiens, UniProt P48730); assay: Liability panel screening by DSF: CSNK1D; type: binding; details: read-out: Mean ΔTM CSNK1D
T1 construct: made in house
Outline: (§1)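 ∆Tm in K was taken from Boltzmann-fitted unfolding inflection points, run in duplicate with a temperature ramp of 3 °C per minute up to 85 °C. Each recombinant protein (2 µM) was in HEPES 10 mM pH 7.5 and NaCl 500 mM, with SYPRO Orange dye at 1:1000.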

BRD4 = target: T2, BRD4 (Homo sapiens, UniProt O60885); assay: Liability panel screening by DSF: BRD4; type: binding; details: read-out: Mean ΔTM BRD4
T2 construct: This panel comprised ten highly ligandable kinases and bromodomains; made in house
Outline: as §1

[1] = cited from earlier work
HEK293T cells [2] = assay: Evaluation of cytotoxicity (overall: growth-rate, metabolic activity, apoptosis, necrosis); type: cell-based; details: HEK293T, 24 h; budesonide (3 µM), others at tested concentration
Experimental: The selection of 40 CG candidates was acquired from commercial vendors (purity ≥95%) and applied to initial toxicity screening. Cytotoxicity was determined in HEK293T cells considering growth-rate, metabolic activity as well as apoptosis and/or necrosis induction to evaluate suitability of the compounds for CG application in cellular settings (Fig. 3a–d, Supplementary Fig. 1, Supplementary Data 1). The candidates were generally well tolerated at concentrations >>EC50/IC50 that we recommend for CG application with only four compounds showing mild toxic effects. […] In terms of cytotoxicity, all candidates thus appeared suitable for inclusion in an NR3 CG set.

NR3A1 (ERα) = details: (lit.); ref Supplementary Table 1; read-out: Potency [nM] EC50, NR3A1 (ERα); cited from earlier work
ABL1 = target: T3, ABL1 (Homo sapiens, UniProt P00519); assay: Liability panel screening by DSF: ABL1; type: binding; details: read-out: Mean ΔTM ABL1
T3 construct: made in house
Outline: as §1

BRPF1 = target: T4, BRPF1 (Homo sapiens, UniProt P55201); assay: Liability panel screening by DSF: BRPF1; type: binding; details: read-out: Mean ΔTM BRPF1
T4 construct: This panel comprised ten highly ligandable kinases and bromodomains; made in house
T4 sequence (P55201 628-732 limits assumed): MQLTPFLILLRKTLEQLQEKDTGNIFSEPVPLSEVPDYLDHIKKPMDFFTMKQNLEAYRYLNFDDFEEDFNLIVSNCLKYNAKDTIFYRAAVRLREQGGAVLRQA
Outline: as §1

HEK293T cells [3] = assay: Cytotoxicity: apoptosis induction (caspase-3/7 DEVD fluorogenic DNA dye); details: for Apoptosis induction [AI]: 1 µM, single replicates
CDK2 = target: T5, CDK2 (Homo sapiens, UniProt P24941); assay: Liability panel screening by DSF: CDK2; type: binding; details: read-out: Mean ΔTM CDK2
T5 construct: made in house
Outline: as §1

HEK293T cells [4] = assay: Cytotoxicity: growth-rate (change in confluence over 24 h); details: 1 µM, normalized to 0.1% DMSO control, single replicates (n=1...)
GSK3B = target: T6, GSK3B (Homo sapiens, UniProt P49841); assay: Liability panel screening by DSF: GSK3B; type: binding; details: read-out: Mean ΔTM GSK3B
T6 construct: made in house

HEK293T cells [5] = assay: Cytotoxicity: metabolic activity (WST-8 / CCK-8 assay); details: 1 µM, single replicates
Gal4-VP16 = type: cell-based; details: 1 µM
AURKA = target: T7, AURKA (Homo sapiens, UniProt O14965); assay: Liability panel screening by DSF: AURKA; type: binding; details: read-out: Mean ΔTM AURKA
T7 construct: made in house
T7 sequence (O14965 1-403): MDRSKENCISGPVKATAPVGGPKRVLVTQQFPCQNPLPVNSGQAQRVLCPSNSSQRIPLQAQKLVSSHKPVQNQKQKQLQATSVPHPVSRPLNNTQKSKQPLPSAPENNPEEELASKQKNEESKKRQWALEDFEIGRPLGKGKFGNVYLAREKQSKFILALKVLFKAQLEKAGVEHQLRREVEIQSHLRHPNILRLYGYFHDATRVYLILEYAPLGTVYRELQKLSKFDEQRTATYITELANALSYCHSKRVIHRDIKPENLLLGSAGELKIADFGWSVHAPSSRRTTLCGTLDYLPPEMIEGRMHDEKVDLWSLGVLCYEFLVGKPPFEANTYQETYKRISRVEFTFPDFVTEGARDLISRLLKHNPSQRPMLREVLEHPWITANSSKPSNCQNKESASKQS
Outline: as §1

MAPK1 = target: T8, MAPK1 (Homo sapiens, UniProt P28482); assay: Liability panel screening by DSF: MAPK1; type: binding; details: read-out: Mean ΔTM MAPK1
T8 construct: made in house
Outline: as §1

FGFR3 = target: T9, FGFR3 (Homo sapiens, UniProt P22607); assay: Liability panel screening by DSF: FGFR3; type: binding; details: read-out: Mean ΔTM FGFR3
T9 construct: made in house
Outline: as §1

TRIM24 = target: T10, TRIM24 (Homo sapiens, UniProt O15164); assay: Liability panel screening by DSF: TRIM24; type: binding; details: read-out: Mean ΔTM TRIM24
T10 construct: This panel comprised ten highly ligandable kinases and bromodomains; made in house
T10 sequence (O15164 899-1004 limits assumed): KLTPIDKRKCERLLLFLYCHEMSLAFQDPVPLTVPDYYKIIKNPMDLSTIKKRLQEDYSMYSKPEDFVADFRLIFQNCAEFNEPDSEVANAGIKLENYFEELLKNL
Outline: as §1

NR3A2 (ERβ) = details: (lit.); ref Supplementary Table 1; read-out: Potency [nM] EC50, NR3A2 (ERβ); cited from earlier work
[6] = tested on: ATF6 activity in Hela ATF6 reporter cells; assay: Endoplasmic reticulum stress assay (ATF6 Renilla luciferase reporter, tunicamycin); type: cell-based; details: Homo sapiens, HeLa, 1 µM, single replicates n=1 to n=5; read-out: ER stress [rel. ATF6 activity]
Outline: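 ER stress was induced by 100 ng/mL tunicamycin added 4 h after compound (0.1% DMSO) to HeLa ATF6 reporter cells. After 18 h more, Renilla luciferase signal was read and expressed relative to DMSO control, n=5 biological replicates.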

NR3C2 (MR) = details: (lit.); ref Supplementary Table 1; read-out: Potency [nM] EC50, NR3C2 (MR); cited from earlier work
NR3C1 (GR) = details: (lit.); ref Supplementary Table 1; read-out: Potency [nM] EC50, NR3C1 (GR); cited from earlier work
NR3C3 (PR) = details: (lit.); ref Supplementary Table 1; read-out: Potency [nM] EC50, NR3C3 (PR); cited from earlier work
[7] = tested on: NF-κB activity in HEK293 NF-κB reporter cells; assay: NF-kB activity assay (GFP reporter, ionomycin/PMA); type: cell-based; details: n=3
Outline: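 Reporter readout: GFP-expressing cells normalized to confluence, imaged every 90 min across 24 h after ionomycin (100 ng/mL)/PMA (10 ng/mL) stimulation of HEK293 cells pre-treated 4 h with compound (0.1% DMSO); triplicate independent experiments.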

NR3C4 (AR) = details: read-out: Potency [nM] EC50, NR3C4 (AR); cited from earlier work
HEK293T cells [8] = assay: Cytotoxicity: necrosis induction (red fluorescent dye for permeable plasma membranes); type: cell-based; details: 1 µM, 24 h, necrotic cell count normalized to 0.1% DMSO, single replicates;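 note: compounds applied in DMEM high glucose with 0.1% FCS and 0.1% DMSO, necrotic HEK293T cells counted by red staining of cells whose plasma membranes had become permeable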

T6 sequence (P49841 whole entry, species assumed): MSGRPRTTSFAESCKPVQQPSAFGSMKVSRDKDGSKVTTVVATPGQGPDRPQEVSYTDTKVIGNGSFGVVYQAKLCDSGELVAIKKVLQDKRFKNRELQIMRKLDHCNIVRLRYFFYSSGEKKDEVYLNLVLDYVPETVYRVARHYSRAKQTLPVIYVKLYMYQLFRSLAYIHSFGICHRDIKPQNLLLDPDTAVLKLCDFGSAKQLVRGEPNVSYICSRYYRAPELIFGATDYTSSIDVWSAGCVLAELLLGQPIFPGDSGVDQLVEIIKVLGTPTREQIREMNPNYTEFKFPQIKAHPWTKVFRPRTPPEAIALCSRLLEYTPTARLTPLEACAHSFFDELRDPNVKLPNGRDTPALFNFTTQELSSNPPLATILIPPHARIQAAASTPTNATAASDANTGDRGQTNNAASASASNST
T3 sequence (P00519 whole entry, species assumed): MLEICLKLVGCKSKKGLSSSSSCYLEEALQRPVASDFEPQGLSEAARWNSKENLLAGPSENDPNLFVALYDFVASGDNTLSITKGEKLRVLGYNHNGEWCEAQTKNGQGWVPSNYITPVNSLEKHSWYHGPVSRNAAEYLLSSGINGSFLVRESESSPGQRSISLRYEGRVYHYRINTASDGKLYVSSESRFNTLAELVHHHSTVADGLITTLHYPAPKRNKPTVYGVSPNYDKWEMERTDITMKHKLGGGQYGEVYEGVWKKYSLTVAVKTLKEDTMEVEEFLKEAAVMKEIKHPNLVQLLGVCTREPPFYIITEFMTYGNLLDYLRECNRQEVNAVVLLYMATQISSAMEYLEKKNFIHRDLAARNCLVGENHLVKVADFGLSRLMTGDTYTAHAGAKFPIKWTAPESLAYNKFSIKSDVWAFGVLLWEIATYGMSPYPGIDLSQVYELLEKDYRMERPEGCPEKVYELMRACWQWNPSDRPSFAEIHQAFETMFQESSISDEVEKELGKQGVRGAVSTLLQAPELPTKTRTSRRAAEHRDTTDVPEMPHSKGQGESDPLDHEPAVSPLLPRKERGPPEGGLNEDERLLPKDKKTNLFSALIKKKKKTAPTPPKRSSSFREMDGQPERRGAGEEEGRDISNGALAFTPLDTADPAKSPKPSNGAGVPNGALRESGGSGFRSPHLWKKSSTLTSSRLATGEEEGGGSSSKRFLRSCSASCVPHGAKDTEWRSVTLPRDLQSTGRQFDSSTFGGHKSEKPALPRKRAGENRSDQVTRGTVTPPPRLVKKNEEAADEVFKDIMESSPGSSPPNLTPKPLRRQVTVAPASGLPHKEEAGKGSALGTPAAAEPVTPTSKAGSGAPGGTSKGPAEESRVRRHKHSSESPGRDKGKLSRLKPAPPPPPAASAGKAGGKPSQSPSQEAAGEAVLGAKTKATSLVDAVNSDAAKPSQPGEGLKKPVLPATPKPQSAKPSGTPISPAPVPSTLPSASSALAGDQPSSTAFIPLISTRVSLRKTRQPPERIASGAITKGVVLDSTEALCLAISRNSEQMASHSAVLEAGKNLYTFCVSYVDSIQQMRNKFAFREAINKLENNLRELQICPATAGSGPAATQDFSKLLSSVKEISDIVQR
T1 sequence (P48730 whole entry, species assumed): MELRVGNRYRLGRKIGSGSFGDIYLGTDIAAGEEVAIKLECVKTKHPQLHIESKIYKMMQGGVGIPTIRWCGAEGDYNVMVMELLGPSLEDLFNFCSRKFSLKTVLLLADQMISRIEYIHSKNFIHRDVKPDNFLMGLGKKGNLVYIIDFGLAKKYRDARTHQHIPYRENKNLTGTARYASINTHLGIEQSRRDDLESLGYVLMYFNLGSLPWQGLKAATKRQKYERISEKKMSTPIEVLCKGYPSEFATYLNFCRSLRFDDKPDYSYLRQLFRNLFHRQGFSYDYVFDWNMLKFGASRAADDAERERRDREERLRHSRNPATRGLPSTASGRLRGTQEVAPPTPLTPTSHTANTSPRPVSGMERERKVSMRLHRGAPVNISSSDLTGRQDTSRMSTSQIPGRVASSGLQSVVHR
T9 sequence (P22607 23-806, species assumed): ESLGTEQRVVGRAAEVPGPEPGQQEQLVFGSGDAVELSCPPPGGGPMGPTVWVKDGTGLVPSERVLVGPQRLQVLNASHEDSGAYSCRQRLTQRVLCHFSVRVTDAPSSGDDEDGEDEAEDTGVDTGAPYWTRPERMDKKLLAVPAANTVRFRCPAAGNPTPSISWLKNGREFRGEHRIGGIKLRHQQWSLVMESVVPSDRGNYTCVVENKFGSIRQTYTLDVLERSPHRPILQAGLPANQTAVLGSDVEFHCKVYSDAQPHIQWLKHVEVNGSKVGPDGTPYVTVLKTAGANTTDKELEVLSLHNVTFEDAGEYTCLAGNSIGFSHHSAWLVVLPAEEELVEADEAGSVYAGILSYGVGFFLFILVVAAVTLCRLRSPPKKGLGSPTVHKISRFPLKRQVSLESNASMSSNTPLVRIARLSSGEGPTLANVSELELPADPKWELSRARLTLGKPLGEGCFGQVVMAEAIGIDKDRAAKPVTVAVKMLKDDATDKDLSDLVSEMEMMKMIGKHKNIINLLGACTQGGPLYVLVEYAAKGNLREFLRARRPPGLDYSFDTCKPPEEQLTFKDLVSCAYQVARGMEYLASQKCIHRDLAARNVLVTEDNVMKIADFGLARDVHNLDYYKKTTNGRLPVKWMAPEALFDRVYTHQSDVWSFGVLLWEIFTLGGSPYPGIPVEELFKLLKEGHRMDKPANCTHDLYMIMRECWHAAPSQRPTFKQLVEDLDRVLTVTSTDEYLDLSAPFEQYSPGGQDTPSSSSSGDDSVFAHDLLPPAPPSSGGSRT
T8 sequence (P28482 whole entry, species assumed): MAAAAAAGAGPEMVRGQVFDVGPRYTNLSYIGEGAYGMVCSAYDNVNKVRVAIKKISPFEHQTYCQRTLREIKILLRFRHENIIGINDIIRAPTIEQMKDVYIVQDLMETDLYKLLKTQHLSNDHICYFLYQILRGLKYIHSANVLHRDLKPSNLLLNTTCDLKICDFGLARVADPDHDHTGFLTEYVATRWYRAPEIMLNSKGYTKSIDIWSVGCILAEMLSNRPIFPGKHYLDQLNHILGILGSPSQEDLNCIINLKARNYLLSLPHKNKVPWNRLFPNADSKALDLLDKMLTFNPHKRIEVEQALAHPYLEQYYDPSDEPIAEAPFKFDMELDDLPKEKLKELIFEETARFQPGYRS

SMILES: C#C[C@]1(O)CC[C@H]2[C@@H]3CCc4cc(O)ccc4[C@H]3CC[C@@]21C [Ethinylestradiol]
- ΔTm at 20 µM (CSNK1D; DSF, 20 µM, n=2): 0.07 °C
- ΔTm at 20 µM (BRD4; DSF, 20 µM, n=2): 0.13 °C
- NR off-target at recom. conc. ([1]; known NR off-target at the recommended concentration, ref Supplementary Table 1 (superscript references)): NR1I3
- Other off-target at recom. conc. ([1]; known off-target outside the NR family at the recommended concentration, ref Supplementary Table 1 (superscript references)): AOX1 and CYP2B6 and SULT1A1 and OCT2
- Reason for exclusion: number of annotated off-targets ([1]; other targets with annotated bioactivities at ≤10 µM in previously published dataset): > 5 off-targets
- effects on growth-rate, metabolic activity and necrosis (HEK293T cells [2]): without relevant effects
- EC50 (NR3A1 (ERα)): 8 ± 1 nM
- ΔTm at 20 µM (ABL1; DSF, 20 µM, n=2): -0.29 °C
- ΔTm at 20 µM (BRPF1; DSF, 20 µM, n=2): 1.32 °C
- Apoptosis induction [AI] (HEK293T cells [3]; DMSO 0.1% = 1.00): 1.56 and 1.81
- apoptosis induction (HEK293T cells [3]; HEK293T, 24 h, budesonide (3 µM), others at tested concentration): slight apoptosis induction
- ΔTm at 20 µM (CDK2; DSF, 20 µM, n=2): -0.25 °C
- Growth rate [GR] (HEK293T cells [4]): 1.36 and 0.84 and 1.03 and 0.88 and 0.94 and 0.78
- ΔTm at 20 µM (GSK3B; DSF, 20 µM, n=2): 0.23 °C
- Metabolic activity [MA] (HEK293T cells [5]; DMSO 0.1% = 1.00): 1.06 (2×) and 0.82 and 1.07 and 1.00 and 0.95
- VP16 control [fold reporter gene activity] (n=3), n=1 (Gal4-VP16; replicate n=1): 1.03 fold
- VP16 control [fold reporter gene activity] (n=3), n=2 (Gal4-VP16; replicate n=2): 0.89 fold
- VP16 control [fold reporter gene activity] (n=3), n=3 (Gal4-VP16; replicate n=3): 0.92 fold
- ΔTm at 20 µM (AURKA; DSF, 20 µM, n=2): 0.11 °C
- ΔTm at 20 µM (MAPK1; DSF, 20 µM, n=2): 0.35 °C
- ΔTm at 20 µM (FGFR3; DSF, 20 µM, n=2): -0.28 °C
- ΔTm at 20 µM (TRIM24; DSF, 20 µM, n=2): -1.12 °C
- EC50 (NR3A2 (ERβ)): 18 ± 2 nM

SMILES: C[C@]1(O)CC[C@H]2[C@@H]3CCC4=CC(=O)CCC4=C3C=C[C@@]21C [Methyltrienolone]
- ΔTm at 20 µM (CSNK1D): -0.05 °C
- ΔTm at 20 µM (BRD4): -0.94 °C
- ΔTm at 20 µM (ABL1): 0.42 °C
- activity at 1 µM [6]: 100%
- EC50 (NR3C2 (MR)): 0.5 ± 0.1 nM
- ΔTm at 20 µM (BRPF1): -1.21 °C
- Apoptosis induction [AI] (HEK293T cells [3]; HEK293T, 24 h, apoptotic cell count normalized to 0.1% DMSO): 0.87 and 1.36 and 0.90 and 1.12 and 0.53 and 0.75
- ΔTm at 20 µM (CDK2): -0.06 °C
- Growth rate [GR] (HEK293T cells [4]): 0.54 and 2.52 and 1.01 and 1.07 and 0.85 and 1.02 and 1.00 and 1.19 and 1.25 and 1.79
- EC50 (NR3C1 (GR)): 10 ± 4 nM
- EC50 (NR3C3 (PR)): 0.5 ± 0.3 nM
- ΔTm at 20 µM (GSK3B): -0.24 °C
- Mean NFκB response ([7]; 1 µM, 1,5 h): 3531.33 GFP+-cells/confluence ∙ 1000
- Mean NFκB response ([7]; 1 µM, 4,5 h): 3781.33 GFP+-cells/confluence ∙ 1000
- Mean NFκB response ([7]; 1 µM, 7,5 h): 7660.67 GFP+-cells/confluence ∙ 1000
- Mean NFκB response ([7]; 1 µM, 10,5 h): 17176.00 GFP+-cells/confluence ∙ 1000
- Mean NFκB response ([7]; 1 µM, 13,5 h): 24525.33 GFP+-cells/confluence ∙ 1000
- Mean NFκB response ([7]; 1 µM, 16,6 h): 30685.33 GFP+-cells/confluence ∙ 1000
- Mean NFκB response ([7]; 1 µM, 19,5 h): 34386.67 GFP+-cells/confluence ∙ 1000
- Mean NFκB response ([7]; 1 µM, 22,5 h): 37650.00 GFP+-cells/confluence ∙ 1000
- Mean NFκB response ([7]; 1 µM, 3 h): 3552.67 GFP+-cells/confluence ∙ 1000
- Mean NFκB response ([7]; 1 µM, 6 h): 4781.67 GFP+-cells/confluence ∙ 1000
- Mean NFκB response ([7]; 1 µM, 9 h): 12656.33 GFP+-cells/confluence ∙ 1000
- Mean NFκB response ([7]; 1 µM, 12 h): 21183.67 GFP+-cells/confluence ∙ 1000
- Mean NFκB response ([7]; 1 µM, 15 h): 28114.67 GFP+-cells/confluence ∙ 1000
- Mean NFκB response ([7]; 1 µM, 18 h): 32970.33 GFP+-cells/confluence ∙ 1000
- Mean NFκB response ([7]; 1 µM, 21 h): 36266.67 GFP+-cells/confluence ∙ 1000
- Mean NFκB response ([7]; 1 µM, 24 h): 38486.67 GFP+-cells/confluence ∙ 1000
- EC50 (NR3C4 (AR)): 0.01 ± 0.01 nM
- Metabolic activity [MA] (HEK293T cells [5]; HEK293T, 24 h, WST-8, normalized to 0.1% DMSO): 0.98 and 1.02 and 0.97 (2×) and 1.07 and 1.05 and 1.13 and 1.10
- ΔTm at 20 µM (AURKA): 0.08 °C
- ΔTm at 20 µM (MAPK1): -0.02 °C
- ΔTm at 20 µM (FGFR3): 0.15 °C
- Necrosis induction [NI] (HEK293T cells [8]): 0.85 and 1.01 and 0.97 and 1.35
- ΔTm at 20 µM (TRIM24): -0.03 °C
